Test results reported in ChEMBL document CHEMBL1201862, “PubChem BioAssay data set” (2004).
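Grown in 96-well plates, cells were treated for 48 hours with each compound at five concentrations. Insufficient inhibition: endpoint recorded as highest concentration tested. The concentration for 50% growth inhibition is given as GI50.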 The source made the active and inactive calls. Cut-off read from the data, not from the text of the source: active = GI50 up to about 1.1 µM and inactive = higher.

Legend:
Experiment in all cases: DTP human tumour cell line panel, 48 h
UACC-62 = system: UACC-62
MCF7 = system: MCF7
UACC-257 = system: UACC-257
A549 = system: A549
MDA-MB-231 = system: MDA-MB-231
SR = system: SR
ACHN = system: ACHN
SK-MEL-28 = system: SK-MEL-28
OVCAR-5 = system: OVCAR-5
T47D = system: T47D
HOP-62 = system: HOP-62
Malme-3M = system: Malme-3M
NCI/ADR-RES = system: NCI/ADR-RES
HCC 2998 = system: HCC 2998
DU-145 = system: DU-145
HCT-116 = system: HCT-116
MOLT-4 = system: MOLT-4
EKVX = system: EKVX

| Compound | GI50 (UACC-62) | GI50 (MCF7) | GI50 (UACC-257) | GI50 (A549) | GI50 (MDA-MB-231) | GI50 (SR) | GI50 (ACHN) | GI50 (SK-MEL-28) | GI50 (OVCAR-5) | GI50 (T47D) | GI50 (HOP-62) | GI50 (Malme-3M) | GI50 (NCI/ADR-RES) | GI50 (HCC 2998) | GI50 (DU-145) | GI50 (HCT-116) | GI50 (MOLT-4) | GI50 (EKVX) |
| --- | --- | --- | --- | --- | --- | --- | --- | --- | --- | --- | --- | --- | --- | --- | --- | --- | --- | --- |
| COC(=O)/C(=C\Nc1cccc(C)n1)S(=O)(=O)c1ccc(C)cc1 | 31.5 µM (inactive) | 68.2 µM (inactive) | 69.2 µM (inactive) | 60 µM (inactive) | 64.3 µM (inactive) | 61.2 µM (inactive) | > 100 µM (inactive) | 67 µM (inactive) | > 100 µM (inactive) | 48 µM (inactive) | > 100 µM (inactive) | > 100 µM (inactive) | 76.4 µM (inactive) | > 100 µM (inactive) | > 100 µM (inactive) | 52.2 µM (inactive) | 28.6 µM (inactive) |  |
| COc1ccc(C(O)(c2ccccc2)c2nccc3ccccc23)cc1 (stereo not drawn) | 3.74 µM (inactive) | 4.32 µM (inactive) | 7.74 µM (inactive) | 7.19 µM (inactive) | 7.31 µM (inactive) | 7.74 µM (inactive) | 12.3 µM (inactive) | 41.4 µM (inactive) | 11.5 µM (inactive) | 36.8 µM (inactive) | 5.28 µM (inactive) | 0.0966 µM (active) | 7.05 µM (inactive) |  | 6.22 µM (inactive) | 4.76 µM (inactive) | 2.29 µM (inactive) | 11.9 µM (inactive) |
| CCN1/C(=C/C#C/C(C)=C\c2sc3ccc(Cl)cc3[n+]2CC)Sc2ccc(Cl)cc21 | 3.32 µM (inactive) | 3.73 µM (inactive) | 3.34 µM (inactive) | 3.57 µM (inactive) | 5.93 µM (inactive) | 0.668 µM (active) | 3.38 µM (inactive) | 9.77 µM (inactive) | 7.94 µM (inactive) | 2.9 µM (inactive) | 4.88 µM (inactive) | 1.85 µM (inactive) | 15.7 µM (inactive) | 4.07 µM (inactive) | 3.68 µM (inactive) | 2.57 µM (inactive) |  | 4.25 µM (inactive) |
| CC1(C)CCCCCCCCCC2CC2CCC(C)(C)C1=O (stereo not drawn) | 36.1 µM (inactive) | 16.4 µM (inactive) | 23.6 µM (inactive) | 22.9 µM (inactive) | 17.3 µM (inactive) | 6.59 µM (inactive) | 19.1 µM (inactive) | 25.9 µM (inactive) | 21.2 µM (inactive) | 18.9 µM (inactive) | 21.8 µM (inactive) | 21 µM (inactive) | 21 µM (inactive) |  | 20.5 µM (inactive) | 16.6 µM (inactive) | 28.5 µM (inactive) | 20.2 µM (inactive) |
| CC1CC(=O)N(N(C)C)C2(C#N)C(=O)N=C(N)C12C#N (stereo not drawn) | 35.8 µM (inactive) | > 100 µM (inactive) | > 100 µM (inactive) | > 100 µM (inactive) | > 100 µM (inactive) | > 100 µM (inactive) | > 100 µM (inactive) |  | > 100 µM (inactive) | > 100 µM (inactive) | > 100 µM (inactive) | > 100 µM (inactive) | > 100 µM (inactive) | > 100 µM (inactive) | > 100 µM (inactive) | > 100 µM (inactive) | 36.7 µM (inactive) | > 100 µM (inactive) |
| COC(=O)c1c(C#C[Si](C)(C)C)c(C#C[Si](C)(C)C)c(C#C[Si](C)(C)C)c(C#C[Si](C)(C)C)c1C(=O)OC | > 100 µM (inactive) | > 100 µM (inactive) | > 100 µM (inactive) | > 100 µM (inactive) | > 100 µM (inactive) | > 100 µM (inactive) | > 100 µM (inactive) | > 100 µM (inactive) | > 100 µM (inactive) | > 100 µM (inactive) |  | > 100 µM (inactive) | > 100 µM (inactive) | > 100 µM (inactive) | > 100 µM (inactive) | > 100 µM (inactive) | > 100 µM (inactive) | > 100 µM (inactive) |
| Cc1nc(N)c(N2CCN(Cc3ccccc3)CC2)c(O)n1 |  | > 100 µM (inactive) | > 100 µM (inactive) | > 100 µM (inactive) | > 100 µM (inactive) | > 100 µM (inactive) | > 100 µM (inactive) | > 100 µM (inactive) | > 100 µM (inactive) | > 100 µM (inactive) | > 100 µM (inactive) | > 100 µM (inactive) | > 100 µM (inactive) | > 100 µM (inactive) | > 100 µM (inactive) | > 100 µM (inactive) | > 100 µM (inactive) | > 100 µM (inactive) |
| CC(C)(C)OC(=O)N(CCCCNC(=O)OCc1ccccc1)CCCNC(=O)OCc1ccccc1 | 87.9 µM (inactive) | 33.3 µM (inactive) | 26.4 µM (inactive) | 9.71 µM (inactive) | 90.2 µM (inactive) | 9.68 µM (inactive) | 9.86 µM (inactive) | > 100 µM (inactive) | > 100 µM (inactive) | 5.19 µM (inactive) | > 100 µM (inactive) |  | 8.59 µM (inactive) | 98.6 µM (inactive) | > 100 µM (inactive) | 41.8 µM (inactive) | 3.27 µM (inactive) | 50.4 µM (inactive) |
| C[N+]1(C)CC=C(N2CCOCC2)CC1 | > 10 µM (inactive) | > 10 µM (inactive) | > 10 µM (inactive) | > 10 µM (inactive) | > 10 µM (inactive) | > 10 µM (inactive) | > 10 µM (inactive) | > 10 µM (inactive) |  | > 10 µM (inactive) | > 10 µM (inactive) | > 10 µM (inactive) | > 10 µM (inactive) | > 10 µM (inactive) | > 10 µM (inactive) | > 10 µM (inactive) | > 10 µM (inactive) | > 10 µM (inactive) |
| CCOC(=O)/C=C(/C(=O)OCC)n1cc(C)c(=O)n(Cc2cnnn2COCCOC(C)=O)c1=O | 15.2 µM (inactive) | 10.5 µM (inactive) | 13.5 µM (inactive) | 50.4 µM (inactive) | 16 µM (inactive) | 4.91 µM (inactive) | 6.05 µM (inactive) | 16.4 µM (inactive) | 16.4 µM (inactive) | 6.93 µM (inactive) | 49.7 µM (inactive) | 2.8 µM (inactive) | 23.6 µM (inactive) | 20 µM (inactive) | 24.5 µM (inactive) | 13.3 µM (inactive) | 3.94 µM (inactive) | 14.1 µM (inactive) |
| CC1(C)OCC([C@H]2O[C@@H](CC(=S)NCCCCCCCCCCCCNC(=S)C[C@H]3O[C@@H](C4COC(C)(C)O4)[C@H]4OC(C)(C)O[C@H]43)[C@H]3OC(C)(C)O[C@H]32)O1 (stereo partly drawn) |  | 24.4 µM (inactive) | 42.5 µM (inactive) | 14.7 µM (inactive) | > 100 µM (inactive) | 34.8 µM (inactive) | 49.3 µM (inactive) | > 100 µM (inactive) | > 100 µM (inactive) | 19.2 µM (inactive) | > 100 µM (inactive) |  | 25.9 µM (inactive) | 75.7 µM (inactive) | > 100 µM (inactive) | 35.7 µM (inactive) | 15.8 µM (inactive) | 49.9 µM (inactive) |
| CCCNC1=NC(C)=CSC(Nc2ccccc2)=C1C#N | > 100 µM (inactive) | > 100 µM (inactive) |  | > 100 µM (inactive) | > 100 µM (inactive) | > 100 µM (inactive) | > 100 µM (inactive) | > 100 µM (inactive) | > 100 µM (inactive) | > 100 µM (inactive) | > 100 µM (inactive) | > 100 µM (inactive) | > 100 µM (inactive) |  | > 100 µM (inactive) | > 100 µM (inactive) | > 100 µM (inactive) |  |
| Cc1cccc2c(N)c3cccc(C(=O)NCC[N+](C)(C)Cc4sc(N5CCOCC5)nc4[N+](=O)[O-])c3nc12 | 3.89 µM (inactive) | 0.438 µM (active) | 6.9 µM (inactive) | 0.178 µM (active) | 2.28 µM (inactive) |  | 0.381 µM (active) | 29.7 µM (inactive) | 1.32 µM (inactive) | 12.7 µM (inactive) | 0.491 µM (active) | 5.93 µM (inactive) | 3.12 µM (inactive) | 1.41 µM (inactive) | 4.01 µM (inactive) | 1.93 µM (inactive) | 0.231 µM (active) | 4.26 µM (inactive) |
| Cc1nc2ccc(NC3OCC(O)C(O)C3O)cc2c(=O)n1-c1ccccc1 (stereo not drawn) | > 100 µM (inactive) | > 100 µM (inactive) | > 100 µM (inactive) |  | > 100 µM (inactive) | > 100 µM (inactive) | > 100 µM (inactive) | > 100 µM (inactive) | > 100 µM (inactive) | > 100 µM (inactive) | > 100 µM (inactive) | > 100 µM (inactive) | > 100 µM (inactive) | > 100 µM (inactive) | > 100 µM (inactive) | > 100 µM (inactive) | > 100 µM (inactive) | > 100 µM (inactive) |
| CC(=O)OC1CCn2c1nc1cc([N+](=O)[O-])c(C)cc12 (stereo not drawn) | > 100 µM (inactive) | > 100 µM (inactive) | > 100 µM (inactive) | > 100 µM (inactive) | > 100 µM (inactive) | > 100 µM (inactive) | > 100 µM (inactive) | > 100 µM (inactive) |  | > 100 µM (inactive) |  | > 100 µM (inactive) | > 100 µM (inactive) | > 100 µM (inactive) | > 100 µM (inactive) | > 100 µM (inactive) | > 100 µM (inactive) | > 100 µM (inactive) |
| CC(C)=Cc1cc2c(cc1O)CCC1C2CC[C@@]2(C)C1CC[C@@H]2O (stereo partly drawn) |  | 14.4 µM (inactive) | 14.9 µM (inactive) | 12.5 µM (inactive) | 16.3 µM (inactive) | 3.18 µM (inactive) | 14 µM (inactive) | 15.5 µM (inactive) | 15.7 µM (inactive) | 12.6 µM (inactive) |  | 10.4 µM (inactive) | 7.66 µM (inactive) | 14.1 µM (inactive) | 14.3 µM (inactive) | 10.3 µM (inactive) | 6.41 µM (inactive) | 15.6 µM (inactive) |
